Experimental findings from ChEMBL document CHEMBL2157996, “Thioglycine and L-thiovaline: biologically active H₂S-donors” (Bioorg Med Chem, 2012) are described below.

A short description of data set [1]: Vasodilatory activity in Wistar rat RASMC cells assessed as increase in cGMP levels after 5 mins by enzyme immunoassay. The format is functional, cell-based.
Data set [2] in a line: Induction of H2S production after 15 mins by methylene blue method. The format is physicochemical. Particulars: 0.25 h.
A short description of data set [3]: Induction of H2S production at 200 uM measured every 15 sec to 1 min by thiobimane fluorescent method.
The nature of data set [4]: Drug degradation in Hanks buffered salt solution assessed as formation of glycine N-carboxyanhydride at 37 degC. To be noted: buffer. The format is physicochemical.
Data set [5] can be described thus: Vasodilatory activity in Wistar rat RASMC cells assessed as increase in cGMP levels at 100 uM after 5 mins by enzyme immunoassay relative to control. The format is functional, cell-based.
Data set [6] is described as follows: Stability of the compound assessed as compound remaining at 25 degC after 24 hrs by NMR spectroscopy in the presence of NaHCO3. The format is physicochemical. To be noted: NaHCO3 present; read-out: Stability.
Data set [7] relates to Rattus norvegicus. Nature of the data set: Induction of H2S release in Sprague-Dawley rat plasma assessed as increase in H2S levels at 5 mg/kg, ip by amperometry. The format is functional, organism-based. Set-up: dose 5 mg/kg. Particulars: TDE = time-dependent effect.
Data set [8] can be described thus: Stability of the compound assessed as compound remaining at 40 degC after 24 hrs by NMR spectroscopy in the presence of NaHCO3. The format is physicochemical. Particulars: NaHCO3 present; read-out: Stability.
The nature of data set [9]: Stability of the compound assessed as compound remaining at 40 degC after 72 hrs by NMR spectroscopy in the presence of NaHCO3. The format is physicochemical. Particulars: NaHCO3 present; read-out: Stability.
Data set [10] can be described thus: Induction of H2S production after 60 mins by thiobimane fluorescent method. Particulars: 1 h. The format is physicochemical.
A short description of data set [11]: Vasodilatory activity in Wistar rat RASMC cells assessed as increase in cGMP levels up to 3 mM after 5 mins by enzyme immunoassay. The format is functional, cell-based.
Data set [12] is described as follows: Stability of the compound assessed as compound remaining at 40 degC after 36 hrs by NMR spectroscopy in the presence of NaHCO3. Particulars: NaHCO3 present; read-out: Stability. The format is physicochemical.
A short description of data set [13]: Induction of H2S production at 100 uM by amperometry. The format is physicochemical.
Data set [14] can be described thus: Induction of H2S production by amperometry. The format is physicochemical.
Data set [15] in a line: Induction of H2S production by sodium nitroprusside assay. The format is physicochemical.
Data set [16] concerns Rattus norvegicus. Briefly: Induction of H2S release in Sprague-Dawley rat plasma assessed as increase in H2S levels at 5 mg/kg, ip upto 8 hrs by amperometry. Also on record: dose 5 mg/kg. The format is functional, organism-based.
A short description of data set [17]: Stability of the compound assessed as compound remaining at 40 degC after 48 hrs by NMR spectroscopy in the presence of NaHCO3. The format is physicochemical. To be noted: NaHCO3 present; read-out: Stability.
Data set [18] in a line: Stability of the compound assessed as compound remaining at 40 degC after 60 hrs by NMR spectroscopy in the presence of NaHCO3. The format is physicochemical. To be noted: NaHCO3 present; read-out: Stability.
Data set [19] has as its system Rattus norvegicus. Nature of the data set: Induction of H2S release in Sprague-Dawley rat plasma assessed as increase in H2S levels at 5 mg/kg, ip after 30 mins by amperometry. Also on record: dose 5 mg/kg. The format is functional, organism-based.

SMILES strings stand for the structures. Activity calls are given as the source filed them. No cut-off for these calls is given here.

Consider `CC(C)[C@H](N)C(=O)S`, for which the Activity entry was “Dose-dependent effect” in data set [1], “Active” in [2] and “Active” in [3]. Also, the Drug metabolism entry in data set [4] is “Active”.
Regarding `CC(C)[C@H](N)C(=O)O`, the result in data set [5] was inactive.
Turning to `NCC(=O)O`, the outcome in data set [5] was inactive.
Turning to `NCC(=O)S` [THIOGLYCIN], the remaining at 24 h in [6] is 100%; in data set [8] it was 88%. Further, the Activity entry with Rattus norvegicus [7] was “tde”; in data set [10], “Active”; in [1], “Dose-dependent effect”; in data set [2], “Active”; in [3], “Active”; in [13] it was “Active”. Also, the values for the Activity entry in data set [14] and in data set [15] were “Dose-dependent effect” and “Active”, respectively. Further, the remaining at 72 h in data set [9] came out at 85%. Further, the outcome (in [11]; in the data set on Rattus norvegicus [16]; in the data set on Rattus norvegicus [19]) was Active. Further, the Drug metabolism result in data set [4] was “Active”. In data set [12], the remaining at 36 h worked out at 83%. In [5], the fold change (FC) is 10. For the same molecule, the remaining at 48 h in data set [17] is 76%. The remaining at 60 h in [18] is 72%.
